Measurements reported in patent US9247750B2, “Polyenylcyclopropanecarboxylic esters with high insecticidal activity” (Endura S.P.A., priority 2007, dated 2016).

How the values were obtained:
Format in all cases: in vivo
Aedes aegypti [1] = test: Insecticide effectiveness in the vapour phase against mosquitoes, impregnated paper unit in 20 m^3 room (Example 9); settings: 5 mg/unit; for % mortality 24 h: 24th hour from start of test; for % Knock-down 8 h: at end of 8th hour; for Knock-down time KT10 / Knock-down time KT50 / Knock-down time KT90: average of 3 cages
Description: (§1) Test units consisting of a paper support 20 cm×10 cm in size were impregnated with the compound of examples 3, 7 and 8 and, for comparative purposes, with the reference compounds transfluthrin and metofluthrin, at an amount of 5.00 mg/unit for each compound (pure). Using a common laboratory stand, the test unit was placed at a height of about 30 cm from the ground along one side of a 20 m^3 room (L 3.00 m×D 2.49 m×H 2.69 m). In order to homogenize the insecticidal air within the room, a small electric fan was placed on the floor diagonal to the surface of the unit, in the nearest corner at a distance of about 50 cm from the unit. Three metal cages (L 8.4 cm×Ø 8.0 cm×mesh 1.0 mm) for every mosquito species, each containing 20 3-4 day old individuals of mixed sex, were placed along the other three sides of the room, at a height of 1.80 m from the ground and at a distance of 0.45 m from the respective walls. During the test the room was kept closed and temperature and humidity were controlled (T 23-26° C., RH 49-61%). The fan was switched on and left on for 8 continuous hours. The times needed to reach 10%, 50% and 90% insect knock-down (KT10, KT50 and KT90, respectively) were recorded.
(§2) Every 2 hours and up to the 6th hour after the fan was switched on, new cages were introduced containing insects (set of 3 cages for each species).
(§3) At the end of the 8th hour, the percentage of insects knocked down in all the cages was determined, then the insects were removed from the room and transferred into an uncontaminated atmosphere within closed containers containing a sugary solution. The percentage mortality was recorded at the 24th hour from the start of the test.
(§4) The results obtained are summarized in tables 1 and 2 and the data are averages for the 3 cages.

Culex quinquefasciatus [2] = test: as above; settings: 5 mg/unit; for % mortality 24 h: 24th hour from start of test; for % Knock-down 8 h: at end of 8th hour; for Knock-down time KT10 / Knock-down time KT50 / Knock-down time KT90: average of 3 cages
Description: as §1, §2, §3, §4

Aedes aegypti [3] = test: Insecticide effectiveness in the vapour phase against mosquitoes, impregnated paper unit in 20 m^3 room (Example 5); settings: 5 mg/unit; for % mortality 24 h: 24th hour from start of test; for % Knock-down 8 h: at end of 8th hour; for Knock-down time KT10 / Knock-down time KT50 / Knock-down time KT90: average of 3 cages
Description: (§5) Test units consisting of a paper support 20 cm×10 cm in size were impregnated with the compound of example 3 and, for comparative purposes, with the reference compounds transfluthrin and metofluthrin, at an amount of 5.00 mg/unit for each compound (pure).
(§6) Using a common laboratory stand, the test unit was placed at a height of about 30 cm from the ground along one side of a 20 m^3 room (L 3.00 m×D 2.49 m×H 2.69 m). In order to homogenize the insecticidal air within the room, a small electric fan was placed on the floor diagonal to the surface of the unit, in the is nearest corner at a distance of about 50 cm from the unit. Three metal cages (L 8.4 cm×Ø 8.0 cm×mesh 1.0 mm) for every mosquito species, each containing 20 3-4 day old individuals of mixed sex, were placed along the other three sides of the room, at a height of 1.80 m from the ground and at a distance of 0.45 m from the respective walls. During the test the room was kept closed and temperature and humidity were controlled (T 23-26° C., RH 49-61%).
(§7) The fan was switched on and left on for 8 continuous hours. The times needed to reach 10%, 50% and 90% insect knock-down (KT10, KT50 and KT90, respectively) were recorded.
as §2, §3, §4

Culex quinquefasciatus [4] = test: as above; settings: 5 mg/unit; for % mortality 24 h: 24th hour from start of test; for % Knock-down 8 h: at end of 8th hour; for Knock-down time KT10 / Knock-down time KT50 / Knock-down time KT90: average of 3 cages
Description: as §5, §6, §7, §2, §3, §4

Blattella germanica = test: Effectiveness of residual insecticide on surfaces (glazed tiles) against cockroaches (Example 6); settings: 50 mg/m^2 on glazed tiles; for percentage knock-down after 24 hours: 24 h exposure
Description: Solutions of the compound of example 3 in acetone and, for comparison, of the reference compounds Transfluthrin and Metofluthrin were applied from a distance of 12 cm onto glazed tiles (Ostara model, 15×15 cm=225 cm^2) by means of a suitable glass sprayer, so as to obtain an applied amount of pure compound equal to 50 mg/m^2. After treatment the tiles were transferred to and maintained in a closed test room at controlled temperature and humidity (24-25° C., RH 50-60%). Glass rings (H 5.5 cm×Ø 9.5 cm), with their internal surface treated with talc, and each containing 5 cockroaches, were positioned at the centre of the tiles for each of the assessment times of 24 hours, 3, 7, 10 and 14 days following treatment. For each assessment day, the insects were maintained on the surface for 24 hours and the time (hours, minutes) necessary to attain 100% knock-down followed by death, or percentage knock-down at the end of 24 hours, were recorded.

`CC=CC1C(C(=O)OCc2c(F)c(F)c(COC)c(F)c2F)C1(C)C` (centres unmarked) [Metofluthrin, (2,3,5,6-tetrafluoro-4-methoxy-methyl)benzyl-2,2-dimethyl-3-prop-1-enylcyclopropanecarboxylate] was tested, and the “% mortality 24 h” value (Aedes aegypti [1]; insect exposure after 0 hours) was 100%, the “% Knock-down 8 h” value (Aedes aegypti [1]; insect exposure after 0 hours) was 100% and the “Knock-down time KT10” value (Aedes aegypti [1]; insect exposure after 0 hours) was 16 min. For the same molecule, the “Knock-down time KT50” value (Aedes aegypti [1]; insect exposure after 0 hours) was 25 min, the “Knock-down time KT90” value (Aedes aegypti [1]; insect exposure after 0 hours) was 34 min and the “% mortality 24 h” value (Aedes aegypti [1]; insect exposure after 2 hours) was 100%. The “% Knock-down 8 h” value (Aedes aegypti [1]; insect exposure after 2 hours) was 100%, the “Knock-down time KT10” value (Aedes aegypti [1]; insect exposure after 2 hours) was 7 min and the “Knock-down time KT50” value (Aedes aegypti [1]; insect exposure after 2 hours) was 9 min. The “Knock-down time KT90” value (Aedes aegypti [1]; insect exposure after 2 hours) was 15 min, the “% mortality 24 h” value (Aedes aegypti [1]; insect exposure after 4 hours) was 100% and the “% Knock-down 8 h” value (Aedes aegypti [1]; insect exposure after 4 hours) was 100%. For the same molecule, the “Knock-down time KT10” value (Aedes aegypti [1]; insect exposure after 4 hours) was 6 min, the “Knock-down time KT50” value (Aedes aegypti [1]; insect exposure after 4 hours) was 8 min and the “Knock-down time KT90” value (Aedes aegypti [1]; insect exposure after 4 hours) was 14 min. For the same molecule, the “% mortality 24 h” value (Culex quinquefasciatus [2]; insect exposure after 0 hours) was 100%, the “% Knock-down 8 h” value (Culex quinquefasciatus [2]; insect exposure after 0 hours) was 100% and the “Knock-down time KT10” value (Culex quinquefasciatus [2]; insect exposure after 0 hours) was 22 min. The “Knock-down time KT50” value (Culex quinquefasciatus [2]; insect exposure after 0 hours) was 32 min, the “Knock-down time KT90” value (Culex quinquefasciatus [2]; insect exposure after 0 hours) was 36 min and the “% mortality 24 h” value (Culex quinquefasciatus [2]; insect exposure after 2 hours) was 100%. The “% Knock-down 8 h” value (Culex quinquefasciatus [2]; insect exposure after 2 hours) was 100%, the “Knock-down time KT10” value (Culex quinquefasciatus [2]; insect exposure after 2 hours) was 11 min and the “Knock-down time KT50” value (Culex quinquefasciatus [2]; insect exposure after 2 hours) was 16 min. The “Knock-down time KT90” value (Culex quinquefasciatus [2]; insect exposure after 2 hours) was 22 min, the “% mortality 24 h” value (Culex quinquefasciatus [2]; insect exposure after 4 hours) was 100% and the “% Knock-down 8 h” value (Culex quinquefasciatus [2]; insect exposure after 4 hours) was 100%. The “Knock-down time KT10” value (Culex quinquefasciatus [2]; insect exposure after 4 hours) was 10 min, the “Knock-down time KT50” value (Culex quinquefasciatus [2]; insect exposure after 4 hours) was 14 min and the “Knock-down time KT90” value (Culex quinquefasciatus [2]; insect exposure after 4 hours) was 20 min. The “% mortality 24 h” value (Aedes aegypti [3]; insect exposure after 0 hours) was 100%, the “% Knock-down 8 h” value (Aedes aegypti [3]; insect exposure after 0 hours) was 100% and the “Knock-down time KT10” value (Aedes aegypti [3]; insect exposure after 0 hours) was 23 min. For the same molecule, the “Knock-down time KT50” value (Aedes aegypti [3]; insect exposure after 0 hours) was 30 min, the “Knock-down time KT90” value (Aedes aegypti [3]; insect exposure after 0 hours) was 39 min and the “% mortality 24 h” value (Aedes aegypti [3]; insect exposure after 2 hours) was 100%. For the same molecule, the “% Knock-down 8 h” value (Aedes aegypti [3]; insect exposure after 2 hours) was 100%, the “Knock-down time KT10” value (Aedes aegypti [3]; insect exposure after 2 hours) was 7 min and the “Knock-down time KT50” value (Aedes aegypti [3]; insect exposure after 2 hours) was 9 min. The “Knock-down time KT90” value (Aedes aegypti [3]; insect exposure after 2 hours) was 15 min, the “% mortality 24 h” value (Aedes aegypti [3]; insect exposure after 4 hours) was 100% and the “% Knock-down 8 h” value (Aedes aegypti [3]; insect exposure after 4 hours) was 100%. The “Knock-down time KT10” value (Aedes aegypti [3]; insect exposure after 4 hours) was 6 min, the “Knock-down time KT50” value (Aedes aegypti [3]; insect exposure after 4 hours) was 8 min and the “Knock-down time KT90” value (Aedes aegypti [3]; insect exposure after 4 hours) was 14 min. For the same molecule, the “% mortality 24 h” value (Culex quinquefasciatus [4]; insect exposure after 0 hours) was 100%, the “% Knock-down 8 h” value (Culex quinquefasciatus [4]; insect exposure after 0 hours) was 100% and the “Knock-down time KT10” value (Culex quinquefasciatus [4]; insect exposure after 0 hours) was 26 min. For the same molecule, the “Knock-down time KT50” value (Culex quinquefasciatus [4]; insect exposure after 0 hours) was 30 min, the “Knock-down time KT90” value (Culex quinquefasciatus [4]; insect exposure after 0 hours) was 35 min and the “% mortality 24 h” value (Culex quinquefasciatus [4]; insect exposure after 2 hours) was 100%. The “% Knock-down 8 h” value (Culex quinquefasciatus [4]; insect exposure after 2 hours) was 100%, the “Knock-down time KT10” value (Culex quinquefasciatus [4]; insect exposure after 2 hours) was 11 min and the “Knock-down time KT50” value (Culex quinquefasciatus [4]; insect exposure after 2 hours) was 16 min. For the same molecule, the “Knock-down time KT90” value (Culex quinquefasciatus [4]; insect exposure after 2 hours) was 24 min, the “% mortality 24 h” value (Culex quinquefasciatus [4]; insect exposure after 4 hours) was 100% and the “% Knock-down 8 h” value (Culex quinquefasciatus [4]; insect exposure after 4 hours) was 100%. The “Knock-down time KT10” value (Culex quinquefasciatus [4]; insect exposure after 4 hours) was 11 min, the “Knock-down time KT50” value (Culex quinquefasciatus [4]; insect exposure after 4 hours) was 16 min and the “Knock-down time KT90” value (Culex quinquefasciatus [4]; insect exposure after 4 hours) was 20 min. The “percentage knock-down after 24 hours” value (Blattella germanica; 1 day after treatment) was 80%*), the “Time to reach 100% knock-down” value (Blattella germanica; 1 day after treatment, one of the 5 individuals recovered within 24 hours) was 2 h (24 h and the “percentage knock-down after 24 hours” value (Blattella germanica; 3 days after treatment) was 24 h 40%. For the same molecule, the “percentage knock-down after 24 hours” value (Blattella germanica; 7 days after treatment) was 24 h 0% and the “percentage knock-down after 24 hours” value (Blattella germanica; 10 days after treatment) was 24 h 0%.
